Source: patent US20070135374A1, “Composition for promoting collagen production” (OTSUKA PHARMACEUTICAL CO., LTD., priority 2003, published 2007)

Legend:
human skin fibroblasts [1] = test: Collagen production promoting effect of combined use of AMP2Na and UMP2Na on cultured human skin fibroblasts (PICP EIA), Test Example 2; assay type: cell-based
Description: (§1) 1) The freeze-preserved cells were dissolved in an LSGS (Low Serum Growth Supplement)-containing liquid culture medium 106S (manufactured by Kurabo Industries, Ltd.), and the cell concentration and medium amount were adjusted to 30000 cells/100 μl. 100 μl of thus obtained cell-containing liquid was poured into each well of a test plate.
2) AMP2Na solutions of various concentrations were prepared using a sterilized phosphate buffer solution, and then filtered through a filter, followed by sterilization. The resultants were added to a liquid medium 106S (manufactured by Kurabo Industries, Ltd.) to prepare AMP2Na-containing culture media of various concentrations (0 to 1×10^−5 w/v %).
3) Twenty four hours after injecting cells into the plate wells, it was confirmed that human fibroblasts adhered to the wells, and the medium was removed from each well. Subsequently, an AMP2Na-containing culture medium (200 μl) of one of various concentrations prepared in 2) above was added to each well. The mixtures were cultured at 37° C. under 5% CO2 for two days.
(§2) 4) Two days after culture initiation, the culture supernatant of each well was collected, and the amount of Procollagen type I C-peptide (PICP) was determined based on the amount of collagen in the culture supernatant using a Procollagen type I C-peptide (PIP) EIA Kit (manufactured by Takara Bio Inc.).
Evaluation of the collagen production promoting effect of the combined use of adenosine monophosphate disodium and uridine monophosphate disodium on cultured human skin fibroblasts.
The evaluation of the collagen production promoting effect of cultured human skin fibroblasts was conducted following the same procedure of Test Example 1 above except for using such media. In Table 1, the proportions of AMP2Na and UMP2Na were based on the concentration of AMP and UMP, respectively.

human skin fibroblasts [2] = test: Collagen production promoting effect of AMP2Na on cultured human skin fibroblasts (PICP EIA), Test Example 1; assay type: cell-based; conditions: 2 days culture, culture supernatant, FIG. 1
Description: Evaluation of the collagen production promoting effect of adenosine monophosphate disodium on cultured human skin fibroblasts.
Primary-cultured human skin fibroblasts (manufactured by Kurabo Industries, Ltd.) were cultured in a 10 cm petri dish, and the cultured cells were collected in the subconfluent state and then freeze-preserved. Using the freeze-preserved cells, an evaluation of the collagen production promoting effect of adenosine monophosphate disodium (hereinafter, referred to as “AMP2Na) was conducted. In the following, the proportion of AMP2Na was based on the concentration of AMP.
as §1, with “plate. […]” for “plate.”
as §2

Row | SMILES | action of promoting collagen production (PICP concentration) (human skin fibroblasts [1]; UMP2Na alone 1×10^−8 w/v % (test medium 3) vs test medium 4, FIG. 2) | potentiation of the action of promoting collagen production of AMP2Na (PICP concentration) (human skin fibroblasts [1]; combined use: AMP2Na 1×10^−6 w/v % + UMP2Na 1×10^−8 w/v % (test medium 1), FIG. 2) | PICP amount relative to cells cultured in the AMP-free medium (human skin fibroblasts [2]; AMP2Na 1×10^−5 w/v % in medium) | PICP amount as compared with cells cultured in an AMP-free medium (human skin fibroblasts [2]; AMP2Na 1×10^−8 to 1×10^−5 w/v % in medium) | action of promoting collagen production (PICP concentration) (human skin fibroblasts [1]; AMP2Na alone 1×10^−6 w/v % (test medium 2) vs test medium 4, FIG. 2)
1 | O=c1ccn([C@@H]2O[C@H](COP(=O)([O-])[O-])[C@@H](O)[C@H]2O)c(=O)[nH]1.[Na+].[Na+] [UMP2Na, uridine monophosphate disodium] | no action of promoting collagen production | sharply potentiates | – | – | –
2 | Nc1ncnc2c1ncn2[C@@H]1O[C@H](COP(=O)([O-])[O-])[C@@H](O)[C@H]1O.[Na+].[Na+] [AMP2Na, adenosine monophosphate disodium] | – | – | about 1.4 times | increased | has an action of promoting collagen production
